The text below walks through data of patent US20250288584A1, “COMBINATIONS COMPRISING POSITIVE ALLOSTERIC MODULATORS OR ORTHOSTERIC AGONISTS OF METABOTROPIC GLUTAMATERGIC RECEPTOR SUBTYPE 2 AND THEIR USE” (JANSSEN PHARMACEUTICA NV, priority 2014, published 2025).

This assay concerns the target T1, human mGlu2 receptor (Homo sapiens, UniProt Q14416).
T1 construct: expressed in transfected cells; host or cells: CHO cells
Kind of assay: [35S]GTPγS binding assay, mGluR2 PAM. To be noted: for Emax: EC20 glutamate; for GTPγS-hmGluR2 PAM pEC50 / EC50: in presence of EC20 glutamate; for EC50: read-out: GTPγS-hmGluR2 PAM pEC50 (converted). Type of assay: biochemical. On the procedure: The [^35S]GTPγS binding assay is a functional membrane-based assay used to study G-protein coupled receptor (GPCR) function whereby incorporation of a non-hydrolysable form of GTP, [^35S]GTPγS (guanosine 5′-triphosphate, labelled with […] ^35S), is measured.
Cells were then collected by scraping in PBS and cell suspension was centrifuged (10 min at 4000 RPM in benchtop centrifuge). Supernatant was discarded and pellet gently resuspended in 50 mM Tris-HCl, pH 7.4 by mixing with a vortex and pipetting up and down. The suspension was centrifuged at 16,000 RPM (Sorvall RC-5C plus rotor SS-34) for 10 minutes and the supernatant discarded. The pellet was homogenized in 5 mM Tris-HCl, pH 7.4 using an ultra-turrax homogenizer and centrifuged again (18,000 RPM, 20 min, 4° C.). The final pellet was resuspended in 50 mM Tris-HCl, pH 7.4 and stored at-80° C. in appropriate aliquots before use. Protein concentration was determined by the Bradford method (Bio-Rad, USA) with bovine serum albumin as standard.
Measurement of mGluR2 positive allosteric modulatory activity of test compounds was performed as follows. Test compounds and glutamate were diluted in assay buffer containing 10 mM HEPES acid, 10 mM HEPES salt, pH 7.4, 100 mM NaCl, 3 mM MgCl2 and 10 μM GDP. Human mGlu2 receptor-containing membranes were thawed on ice and diluted in assay buffer supplemented with 14 μg/ml saponin. Membranes were pre-incubated with compound alone or together with a predefined (˜EC20) concentration of glutamate (PAM assay) for 30 min at 30° C. After addition of [^35S] GTPγS (f.c. 0.1 nM), assay mixtures were shaken briefly and further incubated to allow [^35S] GTPγS incorporation on activation (30 minutes, 30° C.). Final assay mixtures contained 7 μg of membrane protein in 10 mM HEPES acid, 10 mM HEPES salt, pH 7.4, 100 mM NaCl, 3 mM MgCl2, 10 µM GDP and 2 μg/ml saponin. Total reaction volume was 200 μl. Reactions were terminated by rapid filtration through Unifilter-96 GF/B plates (Perkin Elmer, Massachusetts, USA) using a 96-well filtermate universal harvester. Filters were washed 6 times with ice-cold 10 mM NaH2PO4/10 mM Na2HPO4, pH 7.4. Filters were then air-dried, and 40 μl of liquid scintillation cocktail (Microscint-O) was added to each well. Membrane-bound radioactivity was counted in a Microplate Scintillation and Luminescence Counter from Perkin Elmer.
The concentration-response curves of representative compounds of the present invention-obtained in the presence of EC20 of mGluR2 agonist glutamate to determine positive allosteric modulation (PAM)—were generated using the Lexis software interface (developed at J&J). Data were calculated as % of the control glutamate response, defined as the maximal response that is generated upon addition of glutamate alone. Sigmoid concentration-response curves plotting these percentages versus the log concentration of the test compound were analyzed using non-linear regression analysis. The concentration producing half-maximal effect is then calculated as EC50. The pEC50 values below were calculated as the −log EC50, when the EC50 is expressed in M. Emax is defined as relative maximal effect (i.e. maximal % effect relative to the control glutamate response).

Setting [1] is: maximal % effect relative to control glutamate response, read-out: GTPγS-hmGluR2 PAM Emax.

Each structure is given as a SMILES string. Like-named read-outs stand apart in the source and are kept apart here.

T1 sequence (Q14416 19-872): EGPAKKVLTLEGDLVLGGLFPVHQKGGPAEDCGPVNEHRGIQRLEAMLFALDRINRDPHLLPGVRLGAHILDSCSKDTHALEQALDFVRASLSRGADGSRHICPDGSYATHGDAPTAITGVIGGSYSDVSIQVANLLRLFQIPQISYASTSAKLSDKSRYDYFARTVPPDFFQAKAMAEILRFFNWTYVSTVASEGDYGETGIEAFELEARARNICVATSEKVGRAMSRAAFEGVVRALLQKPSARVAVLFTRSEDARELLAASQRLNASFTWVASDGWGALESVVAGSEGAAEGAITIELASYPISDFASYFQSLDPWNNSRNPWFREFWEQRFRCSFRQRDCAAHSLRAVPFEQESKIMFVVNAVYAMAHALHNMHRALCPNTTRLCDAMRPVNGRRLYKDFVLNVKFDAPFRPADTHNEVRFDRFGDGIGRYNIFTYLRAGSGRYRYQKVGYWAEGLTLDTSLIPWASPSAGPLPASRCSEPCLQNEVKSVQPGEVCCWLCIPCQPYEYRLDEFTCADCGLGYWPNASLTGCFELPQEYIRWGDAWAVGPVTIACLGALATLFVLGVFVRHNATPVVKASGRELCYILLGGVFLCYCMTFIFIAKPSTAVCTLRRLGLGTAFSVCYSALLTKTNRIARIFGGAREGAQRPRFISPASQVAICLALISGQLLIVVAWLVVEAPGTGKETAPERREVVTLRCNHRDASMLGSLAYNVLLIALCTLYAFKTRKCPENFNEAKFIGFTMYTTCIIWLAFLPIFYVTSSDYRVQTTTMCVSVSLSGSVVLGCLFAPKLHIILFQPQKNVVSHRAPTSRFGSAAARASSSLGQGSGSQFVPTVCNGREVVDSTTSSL

On to `C[C@H](Oc1c(F)cccc1F)c1ccn2c(CC3CC3)nnc2c1C(F)(F)F` [Co. No. 11-b, 3-(Cyclopropylmethyl)-7-[(1S)-1-(2,6-difluorophenoxy)ethyl]-8-(trifluoromethyl)[1,2,4]triazolo[4,3-a]pyridine], for which the maximal response (Emax) under setting [1] was found to be 239%.

`O=c1c(Cl)c(N2CCC(c3ccccc3F)CC2)ccn1CC1CC1` [Co. No. 12-a]: the “GTPγS-hmGluR2 PAM pEC50” value was determined as 7.03. Moreover, the Emax under setting [1] was 242%.

For the molecule `COc1cc(F)ccc1O[C@@H](C)c1ccn2c(CC3CC3)nnc2c1C(F)(F)F` [Co. No. 12-b, 3-(Cyclopropylmethyl)-7-[(1S)-1-(4-fluoro-2-methoxyphenoxy)ethyl]-8-(trifluoromethyl)[1,2,4]triazolo[4,3-a]pyridine], the maximal response (Emax) under setting [1] amounted to 178%.

Consider `CC1(C)OC2(CCN(c3ccn4c(CC(F)(F)F)nnc4c3Cl)CC2)c2ccccc21` [Co. No. 12], for which the maximal response (Emax) under setting [1] is 261%.

Consider `O=c1c(Cl)c(N2CCC(c3ccc(N4CCOCC4)cc3)CC2)ccn1CC1CC1` [Co. No. 13-a], for which the EC50 is 214 nM. Besides, under setting [1], the Emax is 212%.

`Cc1ccc(O[C@@H](C)c2ccn3c(CC4CC4)nnc3c2C(F)(F)F)c(Cl)c1` [Co. No. 13-b, 7-[(1S)-1-(2-Chloro-4-methylphenoxy)ethyl]-3-(cyclopropylmethyl)-8-(trifluoromethyl)[1,2,4]triazolo[4,3-a]pyridine]: under setting [1], the maximal response (Emax) came out at 280%.

Consider `Fc1cnc(N2CCN(Cc3ccn4c(CC5CC5)nnc4c3C(F)(F)F)CC2)c(F)c1` [Co. No. 13], for which the EC50 was 126 nM. For the same molecule, under setting [1], the maximum response (Emax) came to 278%.

As to `O=c1c(Cl)c(N2CCC(c3ccc(F)cc3F)CC2)ccn1CC1CC1` [Co. No. 14-a], the “GTPγS-hmGluR2 PAM pEC50” value amounted to 6.92. Under setting [1], the maximal effect (Emax) amounted to 259%.

For `Cc1cc(F)ccc1O[C@@H](C)c1ccn2c(CC3CC3)nnc2c1C(F)(F)F` [Co. No. 14-b, 3-(Cyclopropylmethyl)-7-[(1S)-1-(4-fluoro-2-methylphenoxy)ethyl]-8-(trifluoromethyl)[1,2,4]triazolo[4,3-a]pyridine], under setting [1], the Emax is 281%.

In the case of `O=c1c(Cl)c(N2CCC(c3ccccc3Cl)CC2)ccn1CC1CC1` [Co. No. 15-a], the “GTPγS-hmGluR2 PAM pEC50” value was 7. Also, the Emax under setting [1] was determined as 253%.

`C[C@H](Oc1c(F)cc(F)cc1F)c1ccn2c(CC3CC3)nnc2c1C(F)(F)F` [Co. No. 15-b, 3-(Cyclopropylmethyl)-8-(trifluoromethyl)-7-[(1S)-1-(2,4,6-trifluorophenoxy)ethyl][1,2,4]triazolo[4,3-a]pyridine]: the maximum response (Emax) (read-out: GTPγS-hmGluR2 PAM Emax, maximal % effect relative to control glutamate response) came out at 293%.

For the molecule `O=c1c(Cl)c(N2CCC(c3cccc(C(F)(F)F)c3)CC2)ccn1CC1CC1` [Co. No. 16-a], the “GTPγS-hmGluR2 PAM pEC50” value was determined as 7.12. The Emax under setting [1] worked out at 223%.

Take `O=c1c(Cl)c(N2CCC(F)(c3ccccc3)CC2)ccn1CC1CC1` [Co. No. 17-a]: the EC50 was 288 nM. Moreover, the Emax under setting [1] amounted to 261%.

`CC(C)Cn1ccc(N2CCC(c3ccccc3)CC2)c(Cl)c1=O` [Co. No. 19-a]: the “GTPγS-hmGluR2 PAM pEC50” value turned out to be 6.71. The maximum response (Emax) under setting [1] worked out at 240%.

For the molecule `O=c1c(Cl)c(N2CCC(OCCF)(c3ccccc3)CC2)ccn1CC1CC1` [Co. No. 20-a], the Emax under setting [1] was 243%.

For `O=c1c(Cl)c(N2CCC(CF)(c3ccccc3)CC2)ccn1CC1CC1` [Co. No. 21-a], the maximal response (Emax) under setting [1] amounted to 207%.

In the case of `CCCCn1ccc(N2CCC(CO)(c3ccccc3)CC2)c(Cl)c1=O` [Co. No. 22-a], the Emax under setting [1] was found to be 259%.

Consider `CC(C)CCn1ccc(N2CCC(F)(c3ccccc3)CC2)c(Cl)c1=O` [Co. No. 23-a], for which the “GTPγS-hmGluR2 PAM pEC50” value amounted to 6.58. Besides, the maximal response (Emax) under setting [1] was 203%.

Take `CC(C)CCn1ccc(N2CCC(c3ccc(F)cc3F)CC2)c(Cl)c1=O` [Co. No. 24-a]: the “GTPγS-hmGluR2 PAM pEC50” value is given as 6.91. For the same molecule, under setting [1], the maximal response (Emax) was 258%.

As to `O=c1c(Cl)c(N2CCC(F)(c3ccccc3)CC2)ccn1CCC1CC1` [Co. No. 26-a], the EC50 is 316 nM. In addition, under setting [1], the maximal response (Emax) is 248%.

As to `CCCCn1ccc(N2CCC(c3ccc(C(C)(C)O)cc3)CC2)c(Cl)c1=O` [Co. No. 27-a], the EC50 is 331 nM. Further, the Emax under setting [1] was determined as 284%.

As for `CCCCn1ccc(N2CCC(c3ccccc3C(C)(C)O)CC2)c(Cl)c1=O` [Co. No. 28-a], the EC50 is 110 nM. Under setting [1], the Emax came to 297%.

Regarding `CCCCn1ccc(N2CCC(c3ccc(C(C)(C)O)cc3F)CC2)c(Cl)c1=O` [Co. No. 29-a], the EC50 is 107 nM. Moreover, the Emax under setting [1] stood at 317%.

For the molecule `CCCc1nnc2c(C(F)(F)F)c(C(C)Oc3ccc(F)cc3F)ccn12` (stereo not drawn) [Co. No. 30-b, 7-[1-(2,4-Difluorophenoxy)ethyl]-3-propyl-8-(trifluoromethyl)[1,2,4]triazolo[4,3-a]pyridine], under setting [1], the Emax worked out at 227%.

For the molecule `CCCCn1ccc(N2CCC3(CC2)OCc2ccccc23)c(Cl)c1=O` [Co. No. 32-a], the EC50 was 219 nM. The maximum response (Emax) under setting [1] was found to be 347%.

With `CCCCn1ccc(N2CCC3(CC2)COc2ccccc23)c(Cl)c1=O` [Co. No. 33-a], the EC50 was 263 nM. Moreover, the Emax under setting [1] was 362%.

For orientation: Emax means the maximal effect, on the per cent scale that the assay sets.
